For this experiment, the system named is primary olfactory cortex (piriform cortex). In words: fMRI connectivity analysis with piriform cortex as seed. Format: in vivo, human. The protocol:
The pre-processed data were analyzed with the connectivity toolbox in SPM. The primary olfactory cortex (piriform cortex) was used as a seed and the connectivity from this very first olfactory target area to other areas in the brain was modeled. A statistical threshold of 0.05, FDR corrected, was used.

Where two headings read alike, the source gives them in different places.

For `OCCc1ccccc1` [PEA, Phenylethylalcohol], the “negative connectivity from the piriform cortex” value was “negative connectivity to the posterior cingulate cortex”. The “negative connectivity from the piriform cortex” value (listed as control odor) is given as “negative connectivity was detected to the left parietal frontal gyrus”. For the setting “threshold 0.05 FDR corrected”, the “overall connectivity: intensity” value is given as 170 and the “overall connectivity: nodes” value is recorded as 41 nodes.

For the origin of these results see patent US11053454B2, “Fragrance compositions comprising essential oils and products comprising same for promoting wellness” (THIS WORKS PRODUCTS LIMITED, priority 2018, dated 2021).
